The values that follow are results of earlier work, collected in patent publication US20110053898A1, “TOPICAL COMPOSITION COMPRISING VITAMIN D ANALOGUE AND CORTICOSTEROIDS” (GLENMARK GENERICS LTD, priority 2009, published 2011).

The conditions of the data set: vitamin-D3 derivative versus calcitriol.

In the case of `C=C1/C(=C/C=C2\CCC[C@]3(C)[C@@H]([C@H](C)/C=C/C(O)C4CC4)CC[C@@H]23)C[C@@H](O)C[C@@H]1O` (stereo partly shown) [Calcipotriene], the “Power relative to the natural hormone calcitriol” value is given as “about 1%”.
